Experiments:
[1] = biological target: T1, glucocorticoid receptor (GR) (Homo sapiens, UniProt P04150); experiment: binding to the glucocorticoid receptor (recombinant receptor, cytosol of baculovirus-infected Sf9 cells)
T1 construct: made in house; host or cells: Sf9 insect cells infected with recombinant baculovirus; cytosol preparation
T1 sequence (P04150 1-777): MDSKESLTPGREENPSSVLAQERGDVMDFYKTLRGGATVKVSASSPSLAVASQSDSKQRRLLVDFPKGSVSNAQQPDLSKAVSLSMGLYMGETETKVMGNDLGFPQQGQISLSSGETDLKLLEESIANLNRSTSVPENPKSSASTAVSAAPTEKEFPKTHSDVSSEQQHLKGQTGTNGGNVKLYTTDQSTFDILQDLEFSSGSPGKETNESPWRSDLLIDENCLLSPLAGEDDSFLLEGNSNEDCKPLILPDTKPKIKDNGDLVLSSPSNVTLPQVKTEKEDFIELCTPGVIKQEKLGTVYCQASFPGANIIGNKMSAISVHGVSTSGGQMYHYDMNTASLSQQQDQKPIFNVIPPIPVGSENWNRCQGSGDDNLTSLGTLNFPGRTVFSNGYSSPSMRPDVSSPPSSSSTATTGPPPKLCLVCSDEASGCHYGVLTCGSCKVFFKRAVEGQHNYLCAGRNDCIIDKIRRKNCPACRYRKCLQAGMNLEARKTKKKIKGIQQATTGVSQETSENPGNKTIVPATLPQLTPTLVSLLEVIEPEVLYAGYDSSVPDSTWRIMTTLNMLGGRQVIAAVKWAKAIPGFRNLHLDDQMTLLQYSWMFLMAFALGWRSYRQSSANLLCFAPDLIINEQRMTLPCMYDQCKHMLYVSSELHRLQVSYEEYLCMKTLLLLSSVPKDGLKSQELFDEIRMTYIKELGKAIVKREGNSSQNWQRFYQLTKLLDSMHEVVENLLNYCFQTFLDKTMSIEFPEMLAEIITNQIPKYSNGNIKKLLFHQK
Source text: The binding of the substances to the glucocorticoid receptor (GR) and other steroid hormone receptors (mineral corticoid receptor (MR), progesterone receptor (PR) and androgen receptor (AR)) is examined with the aid of recombinantly produced receptors. Cytosol preparations of Sf9 cells, which had been infected with recombinant baculoviruses, which code for the GR, are used for the binding studies.

[2] = tested on: cytokine IL-8 secretion, human monocyte cell line THP-1; experiment: inhibition of LPS-triggered IL-8 secretion in THP-1 cells (ELISA); type: cell-based; conditions: in comparison with dexamethasone as reference
Description: The concentration of the cytokines was determined in the supernatant by means of commercially available ELISA kits.

IC50 [1]: 6.3 nM
SMILES: COCC(O)(C(Nc1cc(F)cc2c1ccc(=O)n2-c1ccc(F)nc1)c1ccc(OC)c(F)c1Cl)C(F)(F)F (centres unmarked) [Example 2, 5-{[1-(2-Chloro-3-fluoro-4-methoxyphenyl)-3,3,3-trifluoro-2-hydroxy-2-(methoxymethyl)propyl]amino}-7-fluoro-1-(6-fluoropyridin-3-yl)-1H quinolin-2-one]
efficacy of IL-8 inhibition [2]: 107%

Source: US20100016338A1, “5-[(3,3,3-Trifluoro-2-hydroxy-1-arylpropyl)amino]-1-arylquinolin-2-ones, a Process for their Production and their Use as Anti-inflammatory Agents” (BAYER SCHERING PHARMA AKTIENGESELLSCHAFT, priority 2008, published 2010)
